Test results from patent US10259807B2, “1-(piperazin-1-yl)-2-([1,2,4]triazol-1-yl)-ethanone derivatives” (Idorsia Pharmaceuticals Ltd., priority 2013, dated 2019).
pIC50: −log10 of the molar value.

Experiments:
human CXCR3A = target: T1, human CXCR3A (Homo sapiens, UniProt P49682); assay: FLIPR assay (CXCL10-induced calcium signal in CHO-K1 cells); type: cell-based; conditions: CHO-K1 cells expressing human CXCR3A coupled to Galpha(16); CXCL10 agonist 20 nM; mean values
T1 construct: expressed in transfected cells; host or cells: CHO-K1
T1 sequence (P49682 1-368): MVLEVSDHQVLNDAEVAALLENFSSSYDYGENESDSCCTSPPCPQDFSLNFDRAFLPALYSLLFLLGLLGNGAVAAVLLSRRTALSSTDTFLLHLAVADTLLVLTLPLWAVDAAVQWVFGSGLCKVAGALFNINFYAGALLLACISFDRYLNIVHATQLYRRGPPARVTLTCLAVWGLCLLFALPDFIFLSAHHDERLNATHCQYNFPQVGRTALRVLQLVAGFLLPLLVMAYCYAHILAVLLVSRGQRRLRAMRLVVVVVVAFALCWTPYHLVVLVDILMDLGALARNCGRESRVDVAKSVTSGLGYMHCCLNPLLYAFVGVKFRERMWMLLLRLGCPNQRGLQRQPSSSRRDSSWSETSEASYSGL
Experimental: A) FLIPR assay: The bioactivity of compounds is tested in a fluorometric imaging plate reader (FLIPR: Molecular Devices) using engineered CHO-K1 cells expressing the human CXCR3A (GenBank: AY242128) coupled to a G protein (Galpha(16)). Cells are plated the day prior to bioassay in F12 medium supplemented with 10% FBS and G418 and hygromycin antibiotics to maintain recombinant selection. […] Cells are washed free of excess dye and 60 microliter of wash buffer is added. Stock solutions of test compounds are made up at a concentration of 10 mM in DMSO, and serially diluted in dilution buffer to concentrations required for inhibition dose response curves. After a 10 minute incubation period at 37° C., 10 microliters of each compound dilution are transferred from a compound plate to the plate containing the recombinant cells in the FLIPR instrument according to the manufacturer's instructions. Following basal readings, 10 microliter CXCL10 agonist at a concentration of 20 nM (from Peprotech) is added, again using the FLIPR instrument. Changes in fluorescence are monitored before and after addition of the test compounds. Emission peak values above base level after CXCL10 addition are exported after base line subtraction. The program XLfit is used to fit the data to a single site dose response curve and to calculate IC50 values. The calculated IC50 values may fluctuate depending on the daily assay performance. Fluctuations of this kind are known to those skilled in the art.

hERG K channel = target: T2, hERG K channel (Homo sapiens, UniProt Q12809); assay: hERG Q-Patch assay; type: cell-based; conditions: CHO cells expressing hERG, K+ tail current 3 min after application, mean of two or three experiments
T2 construct: host or cells: CHO
Experimental: B) hERG Q-Patch assay: Compounds are evaluated for block of the hERG K channel using CHO cells stably expressing the hERG gene (accession number U04270, bSys, Witterswil. Switzerland) and the Patch robotic platform (Sophion, Ballerup, Denmark) in single-cell mode at room temperature. […] When the cells are ˜80% confluent (every 2-3 days), they are either split for further culture or used for electrophysiology. […] Cells are kept in suspension medium at 32-35° C. in the QPatch robot until use, at which time aliquots are transferred to the extracellular solution (in mM: NaCl 150; KCl 4; CaCl2 1.2; MgCl2 1; HEPES 10; pH 7.4 with NaOH) containing 0.3% v/v DMSO and applied to the test plates. K^+ currents are measured with the patch-voltage-clamp technique in the whole-cell configuration with the internal solution (in […]: KCl, 140; NaCl, 10; MgCl2, 1; HEPES, 10; EGTA, 5; pH=7.2 with KOH). […] K^+tail currents are produced from a holding voltage of −80 mV by a 500-ms depolarization to +20 mV followed by a 500-ms repolarization to −40 mV; tail current amplitudes are measured at the end of the repolarization to −40 mV. The pulse pattern is repeated every 10 sec during the experiment, baseline K^+ current is measured after 3 min in extracellular solution, test-solution containing compound is then applied, and K^+ current in presence of compound is measured 3 minutes after application to the cells.

[1] = Human liver microsome assay (metabolic stability); type: in vitro ADME; conditions: human liver microsomes 0.5 mg/mL, compound 1 μM, 37° C., pH 7.4, NADPH-regenerating system
Experimental: Incubation with human liver microsomes was performed to assess metabolic stability at a single compound concentration of 1 μM. A 1 μL-aliquot of the compounds stock solutions in DMSO were added to 899 μL of 100 mM phosphate buffer (pH 7.4) containing the liver microsomes at a concentration of 0.5 mg/mL and the mixture was incubated at 37° C. in an Eppendorf thermomixer at 450 rpm. The reaction was initiated by addition of 100 μL of NADPH-regenerating system containing the glucose-6-phosphate dehydrogenase and at the pre-defined time points, 0, 1.5, 2.5, 5, 10, and 15 min, 100 μL of the incubation was transferred in 100 μL of ice-cold methanol to stop the reaction. Samples were centrifuged at 3220 g for 20 min at 4° C. and the supernatants were submitted to LC/MS-MS analysis.
Calculation of intrinsic clearance CLint:
Natural logarithm of remaining amount of compound was plotted as function of time and the slope of the line determined.
Elimination rate constant (k)=−slope
V=volume of incubation/amount of protein

T2 sequence (Q12809 whole entry): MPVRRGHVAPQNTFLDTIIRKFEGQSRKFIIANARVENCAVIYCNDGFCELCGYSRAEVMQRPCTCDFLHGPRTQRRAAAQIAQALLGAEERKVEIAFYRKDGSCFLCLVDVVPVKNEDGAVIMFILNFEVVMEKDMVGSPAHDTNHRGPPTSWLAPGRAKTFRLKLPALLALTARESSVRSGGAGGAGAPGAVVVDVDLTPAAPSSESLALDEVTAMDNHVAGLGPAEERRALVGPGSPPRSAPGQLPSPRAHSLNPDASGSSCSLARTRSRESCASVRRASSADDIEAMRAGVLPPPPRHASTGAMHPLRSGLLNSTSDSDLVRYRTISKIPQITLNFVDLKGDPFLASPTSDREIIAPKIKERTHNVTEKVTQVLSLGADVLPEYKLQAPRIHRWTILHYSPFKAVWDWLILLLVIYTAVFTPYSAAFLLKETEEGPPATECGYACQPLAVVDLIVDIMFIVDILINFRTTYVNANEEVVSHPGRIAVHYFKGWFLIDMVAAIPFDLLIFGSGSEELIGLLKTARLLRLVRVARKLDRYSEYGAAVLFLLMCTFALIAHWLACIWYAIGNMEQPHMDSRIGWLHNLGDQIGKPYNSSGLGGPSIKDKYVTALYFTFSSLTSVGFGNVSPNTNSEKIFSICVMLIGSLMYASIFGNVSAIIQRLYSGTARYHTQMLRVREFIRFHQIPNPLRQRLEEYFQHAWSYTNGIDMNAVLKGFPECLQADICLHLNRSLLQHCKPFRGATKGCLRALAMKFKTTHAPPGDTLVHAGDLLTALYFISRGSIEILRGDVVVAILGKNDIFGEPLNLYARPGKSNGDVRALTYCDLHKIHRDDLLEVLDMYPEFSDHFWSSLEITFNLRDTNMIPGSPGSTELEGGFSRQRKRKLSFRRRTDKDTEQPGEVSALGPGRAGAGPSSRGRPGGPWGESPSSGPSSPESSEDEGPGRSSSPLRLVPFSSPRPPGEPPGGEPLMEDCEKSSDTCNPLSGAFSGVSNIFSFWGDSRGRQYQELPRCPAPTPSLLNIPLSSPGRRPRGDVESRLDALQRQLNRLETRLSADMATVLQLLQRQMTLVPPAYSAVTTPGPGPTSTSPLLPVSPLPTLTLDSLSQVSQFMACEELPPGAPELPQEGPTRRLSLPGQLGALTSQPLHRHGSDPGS

Structure (SMILES)	pIC50 (human CXCR3A)	% block (hERG K channel; concentration 300 nM)	% block (hERG K channel; concentration 3000 nM)	microsomal CLint at 1 µM [1]
CCOc1ncc(-c2nc(C(F)(F)F)sc2N2CCN(C(=O)Cn3nc(CC)nc3C)[C@H](C)C2)cn1 (single isomer, unassigned) [Example 18]	8.51	3%	13%	60 µL/min/mg
Cc1nc(C)n(CC(=O)N2CCN(c3sc(C(F)(F)F)nc3-c3ccc(Cl)cc3)C[C@H]2C)n1 [Example 7, 1-{(R)-4-[4-(4-Chloro-phenyl)-2-trifluoromethyl-thiazol-5-yl]-2-methyl-piperazin-1-yl}-2-(3,5-dimethyl-[1,2,4]triazol-1-yl)-ethanone]	8.03	34%	88%	7 µL/min/mg
CCOc1ccc(-c2nc(C(F)(F)F)sc2N2CCN(C(=O)Cn3nc(C)nc3C)[C@H](C)C2)cn1 [Example 15, 2-(3,5-Dimethyl-[1,2,4]triazol-1-yl)-1-{(R)-4-[4-(6-ethoxy-pyridin-3-yl)-2-trifluoromethyl-thiazol-5-yl]-2-methyl-piperazin-1-yl}-ethanone]	8.04	1%	13%	66 µL/min/mg
CCOc1ncc(-c2nc(C(F)(F)F)sc2N2CCN(C(=O)Cn3nc(C)nc3C)[C@H](C)C2)cn1 [Example 20, 2-(3,5-Dimethyl-[1,2,4]triazol-1-yl)-1-{(R)-4-[4-(2-ethoxy-pyrimidin-5-yl)-2-trifluoromethyl-thiazol-5-yl]-2-methyl-piperazin-1-yl}-ethanone]	8.24	9%	20%	8 µL/min/mg
CCCc1ncc(-c2nc(C(F)(F)F)sc2N2CCN(C(=O)Cn3nc(C)nc3C)[C@H](C)C2)cn1 [Example 22, 2-(3,5-Dimethyl-[1,2,4]triazol-1-yl)-1-{(R)-2-methyl-4-[4-(2-propyl-pyrimidin-5-yl)-2-trifluoromethyl-thiazol-5-yl]-piperazin-1-yl}-ethanone]	8.54	1%	7%	78 µL/min/mg
Cc1nc(C)n(CC(=O)N2CCN(c3sc(C(F)(F)F)nc3-c3cnc(OC(C)C)nc3)C[C@H]2C)n1 [Example 27, 2-(3,5-Dimethyl-[1,2,4]triazol-1-yl)-1-{(R)-4-[4-(2-isopropoxy-pyrimidin-5-yl)-2-trifluoromethyl-thiazol-5-yl]-2-methyl-piperazin-1-yl}-ethanone]	8.46	2%	6%	13 µL/min/mg
Cc1nc(C)n(CC(=O)N2CCN(c3sc(C(F)(F)F)nc3-c3cnc(C4CC4)nc3)C[C@H]2C)n1 [Example 33, 1-{(R)-4-[4-(2-Cyclopropyl-pyrimidin-5-yl)-2-trifluoromethyl-thiazol-5-yl]-2-methyl-piperazin-1-yl}-2-(3,5-dimethyl-[1,2,4]triazol-1-yl)-ethanone]	8.54	4%	17%	7 µL/min/mg
Cc1nc(C)n(CC(=O)N2CCN(c3sc(C(F)(F)F)nc3-c3cnc(N4CCCC4)nc3)C[C@H]2C)n1 [Example 36, 2-(3,5-Dimethyl-[1,2,4]triazol-1-yl)-1-{(R)-2-methyl-4-[4-(2-pyrrolidin-1-yl-pyrimidin-5-yl)-2-trifluoromethyl-thiazol-5-yl]-piperazin-1-yl}-ethanone]	8.80	7%	15%	338 µL/min/mg
Cc1nc(C)n(CC(=O)N2CCN(c3sc(C(F)(F)F)nc3-c3cnc(CCN(C)C)nc3)C[C@H]2C)n1 [Example 42, 1-((R)-4-{4-[2-(2-Dimethylamino-ethyl)-pyrimidin-5-yl]-2-trifluoromethyl-thiazol-5-yl}-2-methyl-piperazin-1-yl)-2-(3,5-dimethyl-[1,2,4]triazol-1-yl)-ethanone]	7.04	−3%	0%	–
Cc1nc(CO)nn1CC(=O)N1CCN(c2sc(C(F)(F)F)nc2-c2cnc(C(F)(F)F)nc2)C[C@H]1C [Example 44, 2-(3-Hydroxymethyl-5-methyl-[1,2,4]triazol-1-yl)-1-{(R)-2-methyl-4-[2-trifluoromethyl-4-(2-trifluoromethyl-pyrimidin-5-yl)-thiazol-5-yl]-piperazin-1-yl}-ethanone]	8.29	−3%	−6%	–
Cc1nc(C(C)(C)O)nn1CC(=O)N1CCN(c2sc(C(F)(F)F)nc2-c2cnc(C(F)(F)F)nc2)C[C@H]1C [Example 48, 2-[3-(1-Hydroxy-1-methyl-ethyl)-5-methyl-[1,2,4]triazol-1-yl]-1-{(R)-2-methyl-4-[2-trifluoromethyl-4-(2-trifluoromethyl-pyrimidin-5-yl)-thiazol-5-yl]-piperazin-1-yl}-ethanone]	8.33	1%	2%	–
Cc1nc(C)n(CC(=O)N2CCN(c3sc(C(F)(F)F)nc3-c3ccc(C(F)(F)F)nc3)C[C@H]2C)n1 [Example 49, 2-(3,5-Dimethyl-[1,2,4]triazol-1-yl)-1-{(R)-2-methyl-4-[2-trifluoromethyl-4-(6-trifluoromethyl-pyridin-3-yl)-thiazol-5-yl]-piperazin-1-yl}-ethanone]	8.44	–	–	4 µL/min/mg
Cc1nc(C)n(CC(=O)N2CCN(c3sc(C(F)(F)F)nc3-c3cnc(C(F)(F)F)nc3)C[C@@H]2C)n1 [Example 50, 2-(3,5-Dimethyl-[1,2,4]triazol-1-yl)-1-{(S)-2-methyl-4-[2-trifluoromethyl-4-(2-trifluoromethyl-pyrimidin-5-yl)-thiazol-5-yl]-piperazin-1-yl}-ethanone]	–	–	–	11 µL/min/mg
Cc1nc(C)n(CC(=O)N2CCN(c3sc(C(F)(F)F)nc3-c3cnc(C(C)(F)F)nc3)C[C@H]2C)n1 [Example 52, 1-((R)-4-{4-[2-(1,1-Difluoro-ethyl)-pyrimidin-5-yl]-2-trifluoromethyl-thiazol-5-yl}-2-methyl-piperazin-1-yl)-2-(3,5-dimethyl-[1,2,4]triazol-1-yl)-ethanone]	8.35	2%	6%	–
